Experimental data from US20220378901A1, “APPLICATION OF PSEUDOMONAS AERUGINOSA VACCINE IN RESPIRATORY DISEASE” (Sichuan University, priority 2019, published 2022).

Key:
SKLBPA1 [1] = assay: Immunoprotection against SKLBPA1 pulmonary infection; assay type: in vivo, Pseudomonas aeruginosa
Description: . […] One week after the last immunization, SKLBPA1 (which is the homologous strain of vaccine bacteria) and clinical carbapenem-resistant Pseudomonas aeruginosa (CRPA) C58 (from sputum, the drug sensitivity information of clinical C58 is shown in Table 7, which is different from the serotype of vaccine bacteria) are used for challenge.

SKLBPA1 [2] = assay: Efficacy against infection of vaccine alone or in combination with antibiotics; settings: 24 h after infection; no immunization; ATM 4 times (2 h, 4 h, 6 h, 8 h, 100 mg/kg/time); Model 24 h 6.86 ± 0.45
Description: The mice in the immunization group are subcutaneously immunized with SKLB-V1 in the groin at 1×10^7 CFU/100 μL, with 3 injections. […] 24 h after the last immunization, the bacteria SKLBPA1 are used for challenge.

`C[C@H]1[C@H](NC(=O)/C(=N\OC(C)(C)C(=O)O)c2csc(N)n2)C(=O)N1S(=O)(=O)O` [Aztreonam, aztreonam] was tested, and the “Bacterial Load log10CFU” value (SKLBPA1 [1]; in vivo) was 4.31 ± 1.27 log10CFU, the “Bacterial Load log10CFU” value (SKLBPA1 [1]; mice lung tissue, 4 h after infection, SKLB-V1 1×10^7 CFU s.c. at 0, 1st, 2nd weeks, aztreonam 100 mg/kg i.p. from 2 h, model 4.50 ± 1.05) was 4.68 ± 0.22 log10CFU and the “Lung LOG10CFU” value (SKLBPA1 [2]) was 4.11 ± 0.44 LOG10CFU.
